In BindingDB's records for patent US20250263395 (Monte Rosa Therapeutics, 2025):

biological target: Protein cereblon (Homo sapiens, UniProt Q96SW2); test: HTRF assay
Procedure: Biochemical assays were conducted in Greiner white 384 well HiBase plates (Cat. No 784075-25) in 10 μL total volume. A one pot detection solution of CRBN-DDB1 (2.5 nM), Anti-His Terbium Cryptate Gold (1×, PerkinElmer Cat. #: 61HI2TLB), and Cy5-Thalidomide (100 nM, Tenova Cat.: T52461) was prepared in 20 mM HEPES, 20 mM NaCl, 0.2 mM TCEP, 0.2 mM EDTA, and 0.005% Tween20 was dispensed to each assay plate. Compounds were stored in dry, ambient temperatures at 10 mM. A 10-point, 1:3 dilution series was prepared from 10 mM stock concentrations in Echo-compatible LDV plates. 10 nL of each compound dilution series was dispensed into assays wells using an Echo 650 (Labcyte inc. USA). 10 nL of 10 mM Lenalidomide was transferred into the active-control wells for the assay and 10 nL of DMSO was transferred into the neutral-control wells. The assay was then allowed to incubate for 30 min at ambient temperature after transferring compound. Plate measurements were taken on a Pherastar FSX (BMG Labtech, Germany) using the HTRF Red filter (Ex. 337 nm, em1: 620 nm, em2: 665 nm) (Flashes: 50, Integration time: 60-400 us, Z-height: 10 mm, Ratio-multiplier: 10,000).

Protein cereblon, sequence (Q96SW2 whole entry): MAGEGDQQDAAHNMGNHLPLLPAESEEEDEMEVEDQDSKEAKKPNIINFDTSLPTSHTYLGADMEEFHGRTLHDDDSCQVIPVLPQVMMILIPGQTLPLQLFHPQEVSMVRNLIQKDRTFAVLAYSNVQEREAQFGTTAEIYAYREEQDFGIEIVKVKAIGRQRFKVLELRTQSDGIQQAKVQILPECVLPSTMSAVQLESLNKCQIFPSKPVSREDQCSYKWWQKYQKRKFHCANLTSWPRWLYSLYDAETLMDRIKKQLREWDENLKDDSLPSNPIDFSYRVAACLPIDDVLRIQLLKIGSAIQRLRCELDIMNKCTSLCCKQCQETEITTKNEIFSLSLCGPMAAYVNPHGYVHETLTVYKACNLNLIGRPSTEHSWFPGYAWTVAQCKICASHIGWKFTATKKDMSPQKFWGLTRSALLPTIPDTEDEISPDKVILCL

| Structure (SMILES) | Ki |
| --- | --- |
| Cc1cccc(N(C)C(=O)N2CC(OC(=O)NC3CN(c4cc(F)c(C5CCC(=O)NC5=O)c(F)c4)C3)C2)c1 (stereo not given) [US20250263395, Compound 10] | < 100 nM |
| Cc1ccc(C)c(N(C)C(=O)C23CC(OC(=O)NC4CN(c5cc(F)c(C6CCC(=O)NC6=O)c(F)c5)C4)(C2)C3)c1 (stereo not given) [US20250263395, Compound 111] | < 100 nM |
| Cc1ccnc(N2CC(OC(=O)NC3CN(c4cc(F)c(C5CCC(=O)NC5=O)c(F)c4)C3)C2)c1 (stereo not given) [US20250263395, Compound 6] | < 100 nM |

The remaining lines, values ahead:

| Ki | Structure (SMILES) |
| --- | --- |
| < 100 nM | O=C1CCC(c2c(F)cc(N3CC(NC(=O)OC4CN(C(=O)N5CCCC5)C4)C3)cc2F)C(=O)N1 (stereo not given) [US20250263395, Compound 32] |
| < 100 nM | O=C1CCC(c2c(F)cc(N3CC(NC(=O)OCC4CC5(CCC5)C4)C3)cc2F)C(=O)N1 (stereo not given) [US20250263395, Compound 1] |
